{"source": "patent US20090087845A1", "about": "“Genetic Markers Of True Low Birth Weight” (priority 2005, published 2009)", "system": "placental gene expression", "test": "Placental gene expression (Affymetrix Rat Genome Chip 230.2) after SSRI (fluoxetine) exposure throughout gestation", "type": "in vivo", "conditions": "placenta, SSRI-exposed samples", "experimental": "Gene expression data from pregnant rats under different forms of dietary restriction was gathered. […] (N=8) • Group 2 (CR50): Rats Given 50% of their Normal Daily Intake of Food. (N=5) • Group 3 (CR70): Rats Given 70% of their Normal Daily Intake of Food. […] (N=6) Placentas from the rats of each Group were harvested on Day 21 of gestation. RNA was extracted and gene expression was measured based on hybridization of RNA to Affymetrix Rat Genome Chips™ (230.2) (Affymetrix, Santa Clara, Calif.).\nIn order to determine whether placental gene expression profiling can be used to identify other prenatal exposures such as toxicants and drugs, a group of rats with drug exposure was monitored as described above. […] As with control, CR50, CR70, and HF groups, placentas from the mothers were sampled after 21 days of gestation and gene expression monitored utilizing an Affymetrix Rat Genome Chip.", "note": "Several values for one entry are separate records, joined by “and”; a condition that tells them apart may be missing. Equal entries are not always repeated.", "data": [{"compound": "CNCCC(Oc1ccc(C(F)(F)F)cc1)c1ccccc1", "note": "(stereo not shown) [fluoxetine, Fluoxetine]", "values": [{"measurement": "expression, probeset 1384527_at", "value": "5 and 5.16 and 4.806 and 4.891 and 4.944 and 4.995"}, {"measurement": "expression, probeset 1384528_at", "value": "7.1 and 7.424 and 7.73 and 8.04 and 7.505 and 7.682"}, {"measurement": "expression, probeset 1384641_at", "value": "5.867 and 5.877 and 5.784 and 5.513 and 5.517 and 5.626"}, {"measurement": "expression, probeset 1384849_at", "value": "4.659 and 4.629 and 5.174 and 5.223 and 4.879 and 4.92"}, {"measurement": "expression, probeset 1384923_at", "value": "6.977 and 7.2 and 6.818 and 6.939 and 6.837 and 6.982"}, {"measurement": "expression, probeset 1385137_at", "value": "6.326 and 6.421 and 6.154 and 5.912 and 6.02 and 6.248"}, {"measurement": "expression, probeset 1385163_at", "value": "6.063 and 5.993 and 6.045 and 5.955 and 5.885 and 6.124"}, {"measurement": "expression, probeset 1385336_at", "value": "4.379 and 4.499 and 4.426 and 4.399 and 4.645 and 4.457"}, {"measurement": "expression, probeset 1385442_at", "value": "7.16 and 7.404 and 6.997 and 6.879 and 6.92 and 6.943"}, {"measurement": "expression, probeset 1385518_at", "value": "6.937 and 6.773 and 6.99 and 6.986 and 7.076 and 6.76"}, {"measurement": "expression, probeset 1385535_at", "value": "4.02 and 3.842 and 4.063 and 4.09 and 4.042 and 4.166"}, {"measurement": "expression, probeset 1385652_at", "value": "7.797 and 7.898 and 7.543 and 7.484 and 7.575 and 7.378"}, {"measurement": "expression, probeset 1385676_at", "value": "8.114 and 8.061 and 8.462 and 8.533 and 8.039 and 8.344"}, {"measurement": "expression, probeset 1385698_at", "value": "3.878 and 3.859 and 3.777 and 3.605 and 3.7424 and 3.746"}, {"measurement": "expression, probeset 1385760_at", "value": "7.137 and 7.354 and 6.648 and 7.09 and 7.316 and 7.321"}, {"measurement": "expression, probeset 1385775_at", "value": "4.145 and 4.375 and 3.896 and 3.993 and 4.079 and 4.161"}, {"measurement": "expression, probeset 1386125_at", "value": "6.311 and 6.381 and 6.134 and 6.261 and 6.055 and 6.325"}, {"measurement": "expression, probeset 1386158_at", "value": "4.004 and 4.128 and 4.063 and 4.152 and 3.988 and 3.931"}, {"measurement": "expression, probeset 1386414_at", "value": "6.861 and 7.196 and 6.932 and 7.199 and 7.249 and 7.033"}, {"measurement": "expression, probeset 1386519_x_at", "value": "7.188 and 7.295 and 7.082 and 7.038 and 7.203 and 7.126"}, {"measurement": "expression, probeset 1387083_at", "value": "5.565 and 6.278 and 5.686 and 5.781 and 5.789 and 5.938"}, {"measurement": "expression, probeset 1387136_at", "value": "6.691 and 6.697 and 6.593 and 6.718 and 6.67 and 6.537"}, {"measurement": "expression, probeset 1387406_at", "value": "6.01 and 6.243 and 5.981 (2×) and 5.916 and 6.087"}, {"measurement": "expression, probeset 1387459_at", "value": "3.484 and 3.639 and 3.932 and 3.86 and 3.992 and 3.799"}, {"measurement": "expression, probeset 1387764_at", "value": "5.733 and 5.268 and 5.537 and 5.549 and 5.494 and 5.603"}, {"measurement": "expression, probeset 1387899_at", "value": "5.335 and 5.408 and 5.339 and 5.026 and 4.958 and 5.215"}, {"measurement": "expression, probeset 1387912_at", "value": "8.618 and 8.518 and 8.718 and 9.05 and 9.01 and 8.757"}, {"measurement": "expression, probeset 1388037_at", "value": "4.856 and 4.68 and 4.647 and 4.894 and 4.953 and 4.682"}, {"measurement": "expression, probeset 1388091_at", "value": "4.362 and 4.794 and 4.302 and 4.133 and 4.449 and 4.329"}, {"measurement": "expression, probeset 1388390_at", "value": "10.86 and 10.87 and 11.34 and 11.8393 and 11.4165 and 11.4451"}, {"measurement": "expression, probeset 1388396_at", "value": "8.176 and 7.836 and 8.032 and 8.018 and 7.774 and 8.067"}, {"measurement": "expression, probeset 1388447_at", "value": "7.564 and 7.841 and 7.682 and 7.537 and 7.38 and 7.532"}, {"measurement": "expression, probeset 1388486_at", "value": "7.701 and 7.565 and 7.723 and 7.751 and 7.921 and 7.749"}, {"measurement": "expression, probeset 1388781_at", "value": "5.825 and 6.004 and 5.674 and 5.735 and 5.979 and 5.673"}, {"measurement": "expression, probeset 1388938_at", "value": "9.061 and 9.268 and 8.805 and 8.994 and 8.728 and 9.107"}, {"measurement": "expression, probeset 1389095_at", "value": "5.489 and 5.217 and 5.112 and 5.397 and 5.478 and 5.073"}, {"measurement": "expression, probeset 1389431_at", "value": "6.558 and 6.3 and 6.381 and 6.49 and 6.951 and 6.471"}, {"measurement": "expression, probeset 1389551_at", "value": "8.862 and 8.606 and 8.909 and 8.801 and 8.621 and 8.842"}, {"measurement": "expression, probeset 1389664_at", "value": "7.741 and 8.146 and 7.529 and 7.949 and 7.982 and 7.952"}, {"measurement": "expression, probeset 1389835_at", "value": "4.064 and 3.784 and 4.093 and 4.045 (2×) and 4.18"}, {"measurement": "expression, probeset 1389917_at", "value": "5.998 and 5.507 and 6.012 and 5.987 and 5.908 and 5.888"}, {"measurement": "expression, probeset 1389938_at", "value": "3.638 and 3.579 and 3.678 and 3.837 and 3.753 and 3.593"}, {"measurement": "expression, probeset 1390090_at", "value": "7.476 and 7.464 and 7.498 and 7.393 and 7.3 and 7.578"}, {"measurement": "expression, probeset 1390259_at", "value": "4.304 and 4.546 and 4.677 and 4.255 and 4.358 and 4.411"}, {"measurement": "expression, probeset 1390464_at", "value": "5.625 and 5.847 and 5.541 and 5.807 and 5.983 and 5.83"}, {"measurement": "expression, probeset 1390534_at", "value": 6.478}, {"measurement": "expression, probeset 1390603_at", "value": "6.467 and 6.868 and 6.527 and 6.621 and 6.242 and 6.674"}, {"measurement": "expression, probeset 1390649_at", "value": "7.28 and 7.575 and 6.821 and 7.034 and 7.132 and 6.938"}, {"measurement": "expression, probeset 1390892_at", "value": "5.112 and 5.3382 and 4.891 and 5.21 and 4.944 and 5.358"}]}]}
